Laboratory results taken from patent US9000028B2, “Indole and indazole compounds as an inhibitor of cellular necrosis” (LG Life Sciences Ltd., priority 2007, dated 2015).

Tests used:
[1] = test system: pancreatic cells (Linm5F); test: Protective effect when tBHP was treated on pancreatic cells (SRB method); type: cell-based; settings: tBHP 400 uM, 5 h
Protocol: (§1) In order to determine the protective effect on pancreatic cells, Linm5F cells, a sort of the beta cells, were distributed into the 96-well plate in the amount of 2×10^4 cells/well, and incubated for 24 h. The Example compounds were serially diluted by 3-fold to the final concentration of 30, 10, 3, 1, 0.3, 0.1 uM, by which each well was treated for 1 h. Cells were treated with tBHP at the final concentration of 400 uM, and further incubated for 5 h. Protective effects were determined using SRB (Sulforhodamine B Protein) method in which total amount of cellular protein is stained. Briefly, cells were incubated for 5 h, 50 uL of 4% formaldehyde solution was added to each well to fix the cells, and stored for about 30 min at room temperature. After discarding the media, each well was washed with distilled water 2-3 times, and the plate was dried in an oven at 50° C. 50 uL of SRB solution was added to each well, and placed for about 30 min at room temperature. After removing SRB solution, the plate was washed with 1% acetic acid solution 2-3 times. After drying the plate in an oven at 50° C., 100 uL of 10 mM Tris was added to elute SRB which was staining the intracellular protein.

[2] = test system: kidney cells (LLC-PK1); test: Protective effect when tBHP was treated on kidney cells (SRB method); type: cell-based; settings: Sus scrofa, tBHP 400 uM, 6 h
Protocol: as §1, with “After drying the plate in an oven at 50° C., 100 uL of 10 mM Tris was added to elute SRB which was staining the intracellular protein.” left out
In order to determine the protective effect on kidney cells, 4×10^4 cells were distributed into each well, and incubated for 24 h. […] Protective effect of each compound was determined using the same SRB method as in Linm5F of above mentioned 2).

[3] = test system: primary hepatocytes isolated from rats; test: Hepatocyte protective effect against substances deriving hepatocyte toxicity (WST-1 viability); type: cell-based; settings: Rattus norvegicus, Hepatocyte, doxorubicin, 24-48 h, read-out: EC50, cell protective effects against doxorubicin in hepatocytes
Summary of the method: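 Hepatocytes from two-step collagenase perfusion (≥90% viable) seeded on collagen, pretreated 30 min with compound (5-step 2- or 3-fold dilutions from 30, 10 or 1 uM; 0.2% DMSO), then exposed to hepatotoxic agents. WST-1 absorbance at 440 nm after 24-48 h; EC50 = concentration giving 50% of maximal protection.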

[4] = test system: chondrocytes; test: Protective effect when tBHP was treated on chondrocytes (SRB method); type: cell-based, SD rats; settings: Chondrocyte; tBHP 500 uM, 3 h; rat chondrocytes
Protocol: as §1, with “After drying the plate in an oven at 50° C., 100 uL of 10 mM Tris was added to elute SRB which was staining the intracellular protein.” left out
In order to determine the protective effect on chondrocytes, chondrocytes were isolated from 2 hind legs of 16 week-old SD rats (body weight: 450-460 g). […] Protective effect of each compound was determined using the same SRB staining method as in Linm5F of above mentioned 2).

[5] = test system: brain cells (SK-N-MC); test: Protective effect when tBHP was treated on brain cells (LDH assay); type: cell-based; settings: Homo sapiens, tBHP 400 uM, 6 h
Protocol: In order to assess the protective effect on brain cells, 2×10^4 brain cells were distributed into the 96-well plate using DMEM media (Gibco, 10% FBS), and incubated for 24 h. The Example compounds were serially diluted by 3-fold to the final concentration of 30, 10, 3, 1, 0.3, 0.1 uM, by which each well was treated for 1 h. Cells were treated with tBHP at the final concentration of 400 uM, and incubated for 6 h. 50 uL of media was taken from each well to proceed with LDH assay (Promega). In LDH assay, 50 uL of media was mixed with 50 uL of assay solution. After the reaction for 30 min at room temperature, absorbance was measured at 490 nm using SpectraMax (Molecular Device).

| SMILES | EC50 [1] | EC50 [2] | EC50 [3] | EC50 [4] | EC50 [5] |
| --- | --- | --- | --- | --- | --- |
| O=S1(=O)CCN(Cc2cc(NCC3CCOCC3)c3[nH]c(-c4ccccc4)cc3c2)CC1 [Example 56, (Tetrahydropyran-4-ylmethyl)-[2-phenyl-5-(1,1-dioxo-thiomorpholin-4-yl)methyl-1H-indol-7-yl]amine] | ≤ 100 nM | 660 nM | 130 nM | ≤ 100 nM |  |
| O=C1CN(Cc2cc(NCC3CCOCC3)c3[nH]c(-c4ccccc4)cc3c2)CCN1 [Example 63, (Tetrahydropyran-4-ylmethyl)-[2-phenyl-5-(2-oxo-piperazin-4-yl)methyl-1H-indol-7-yl]amine] |  |  | 170 nM | ≤ 100 nM | ≤ 100 nM |
